Tests used:
γ-secretase [1] = biological target: T1, γ-secretase (Homo sapiens, UniProt P49768); assay: Screening for γ-secretase-modulating activity: Aβtotal in cell supernatant (Alphalisa sandwich immuno-assay); type: cell-based; conditions: SKNBE2 human neuroblastoma cells carrying hAPP 695-wild type, overnight incubation
T1 construct: endogenous in cells; host or cells: SKNBE2 human neuroblastoma cells carrying hAPP 695 wild type
Procedure: (§1) A) Screening of the Compounds of the Invention for γ-Secretase-Modulating Activity
(§2) Screening was carried out using SKNBE2 human neuroblastoma cells carrying the hAPP 695-wild type, grown in Dulbecco's Modified Eagle's Medium/Nutrient mixture F-12 (DMEM/NUT-mix F-12) (HAM) provided by Invitrogen (cat no. 10371-029) containing 5% Serum/Fe supplemented with 1% non-essential amino acids, 1-glutamine 2 mM, Hepes 15 mM, penicillin 50 U/ml (units/ml) and streptomycin 50 μg/ml. Cells were grown to near confluency.
(§3) The screening was performed using a modification of the assay as described in Citron et al (1997) Nature Medicine 3: 67. Briefly, cells were plated in a 384-well plate at 10^4 cells/well in Ultraculture (Lonza, BE12-725F) supplemented with 1% glutamine (Invitrogen, 25030-024), 1% non-essential amino acid (NEAA), penicillin 50 U/ml en streptomycin 50 μg/ml in the presence of test compound at different test concentrations. The cell/compound mixture was incubated overnight at 37° C., 5% CO2. The next day the media were assayed by two sandwich immuno-assays, for Aβ42 and Aβtotal.
(§4) Aβtotal and Aβ42 concentrations were quantified in the cell supernatant using the Aphalisa technology (Perkin Elmer). Alphalisa is a sandwich assay using biotinylated antibody attached to streptavidin coated donorbeads and antibody conjugated to acceptor beads. In the presence of antigen, the beads come into close proximity. The excitation of the donor beads provokes the release of singlet oxygen molecules that trigger a cascade of energy transfer in the acceptor beads, resulting in light emission. To quantify the amount of Aβ42 in the cell supernatant, monoclonal antibody specific to the C-terminus of Aβ42 (JRF/cAβ42/26) was coupled to the receptor beads and biotinylated antibody specific to the N-terminus of Aβ (JRF/AβN/25) was used to react with the donor beads. To quantify the amount of Aβtotal in the cell supernatant, monoclonal antibody specific to the N-terminus of Aβ (JRF/AβN/25) was coupled to the receptor beads and biotinylated antibody specific to the mid region of Aβ (biotinylated 4G8) was used to react with the donor beads.
(§5) The sigmoidal dose response curves were analyzed using non-linear regression analysis with percentage of the control plotted against the log concentration of the compound. A 4-parameter equation was used to determine the IC50.

γ-secretase [2] = biological target: T1, γ-secretase; assay: Screening for γ-secretase-modulating activity: Aβ42 in cell supernatant (Alphalisa sandwich immuno-assay); type: cell-based; conditions: SKNBE2 human neuroblastoma cells carrying hAPP 695-wild type, overnight incubation
Procedure: as §1, §2, §3, §4
To obtain the values reported in Table 3, the data are calculated as percentage of the maximum amount of amyloid Beta 42 measured in the absence of the test compound.
as §5

IC50 (γ-secretase [1]) [µM]	IC50 (γ-secretase [2]) [µM]	melting point [°C]	Compound
> 10	0.29	246.53	Cc1cn(-c2ccc3n(c2=O)C[C@@H]2CCC[C@H](Cc4cc(C(F)(F)F)cc(C(F)(F)F)c4)N2C3=O)cn1 (single isomer, unassigned) [Compound 9, 10-[[3,5-bis(trifluoromethyl)phenyl]methyl]-6,6a,7,8,9,10-hexahydro-3-(4-methyl-1H-imidazol-1-yl)-dipyrido[1,2-a:1′,2-d]pyrazine-4,12-dione ((6aR, 10S) or (6aS, 10R))]
> 10	0.42	241.17	Cc1cn(-c2ccc3n(c2=O)C[C@@H]2CC[C@H](Cc4cc(C(F)(F)F)cc(C(F)(F)F)c4)N2C3=O)cn1 (single isomer, unassigned) [Compound 3, 3-[[3,5-bis(trifluoromethyl)phenyl]methyl]-2,3,11,11a-tetrahydro-8-(4-methyl-1H-imidazol-1-yl)-1H-pyrido[1,2-a]pyrrolo[1,2-d]pyrazine-5,9-dione ((3S, 11aR) or (3R, 11aS))]
–	> 10	–	Cc1cn(-c2ccc3n(c2=O)C[C@@H]2CCC[C@H](c4cc(C(F)(F)F)cc(C(F)(F)F)c4)N2C3=O)cn1 (single isomer, unassigned) [Compound 13, 10-[3,5-bis(trifluoromethyl)phenyl]-6,6a,7,8,9,10-hexahydro-3-(4-methyl-1H-imidazol-1-yl)-dipyrido[1,2-a: 1′,2′-d]pyrazine-4,12-dione ((6aS, 10R) or (6aR, 10S)]
> 10	0.16	234.89	Cc1cn(-c2ccc3n(c2=O)CC2CCC(Cc4cc(C(F)(F)F)cc(C(F)(F)F)c4)N2C3=O)cn1 (stereo not drawn) [Compound 1, 3-[[3,5-bis(trifluoromethyl)phenyl]methyl]-2,3,11,11a-tetrahydro-8-(4-methyl-1H-imidazol-1-yl)-1H-pyrido[1,2-a]pyrrolo[1,2-d]pyrazine-5,9-dione]
> 15.1	1.32	–	Cc1cn(-c2ccc3n(c2=O)C[C@H]2CC[C@@H](c4ccc(Cl)c(Cl)c4)N2C3=O)cn1 [Compound 21, (3S,11aR)-3-(3,4-dichlorophenyl)-2,3,11,11a-tetrahydro-8-(4-methyl-1H-imidazol-1-yl)-1H-pyrido[1,2-a]pyrrolo[1,2-d]pyrazine-5,9-dione]
> 10	0.72	–	Cc1cn(-c2ccc3n(c2=O)C[C@H]2CC[C@@H](c4cc(C(F)(F)F)cc(C(F)(F)F)c4)N2C3=O)cn1 [Compound 19, (3S,11aR)-3-[3,5-bis(trifluoromethyl)phenyl]-2,3,11,11a-tetrahydro-8-(4-methyl-1H-imidazol-1-yl)-1H-pyrido[1,2-a]pyrrolo[1,2-d]pyrazine-5,9-dione]
> 10	0.11	247.06	Cc1cn(-c2ccc3n(c2=O)C[C@@H]2CCC[C@H](Cc4cc(C(F)(F)F)cc(C(F)(F)F)c4)N2C3=O)cn1 (single isomer, unassigned) [Compound 8, 10-[[3,5-bis(trifluoromethyl)phenyl]methyl]-6,6a,7,8,9,10-hexahydro-3-(4-methyl-1H-imidazol-1-yl)-dipyrido[1,2-a:1′,2-d]pyrazine-4,12-dione ((6aS, 10R) or (6aR, 10S))]
3.16	0.13	231.74	Cc1cn(-c2ccc3n(c2=O)C[C@@H]2CCC[C@@H](Cc4cc(C(F)(F)F)cc(C(F)(F)F)c4)N2C3=O)cn1 (single isomer, unassigned) [Compound 10, 10-[[3,5-bis(trifluoromethyl)phenyl]methyl]-6,6a,7,8,9,10-hexahydro-3-(4-methyl-1H-imidazol-1-yl)-dipyrido[1,2-a:1′,2-d]pyrazine-4,12-dione ((6aS, 10S) or (6aR, 10R))]
> 10	> 10	–	Cc1cn(-c2ccc3n(c2=O)C[C@@H]2CC[C@H](c4cc(C(F)(F)F)cc(C(F)(F)F)c4)N2C3=O)cn1 [Compound 18, (3R,11aS)-3-[3,5-bis(trifluoromethyl)phenyl]-2,3,11,11a-tetrahydro-8-(4-methyl-1H-imidazol-1-yl)-1H-pyrido[1,2-a]pyrrolo[1,2-d]pyrazine-5,9-dione]
> 10	4.57	–	Cc1cn(-c2ccc3n(c2=O)C[C@H]2CC[C@H](c4cc(C(F)(F)F)cc(C(F)(F)F)c4)N2C3=O)cn1 [Compound 15, (3R,11aR)-3-[3,5-bis(trifluoromethyl)phenyl]-2,3,11,11a-tetrahydro-8-(4-methyl-1H-imidazol-1-yl)-1H-pyrido[1,2-a]pyrrolo[1,2-d]pyrazine-5,9-dione]
9.33	4.47	–	Cc1cn(-c2ccc3n(c2=O)C[C@H]2CC[C@H](c4ccc(Cl)c(Cl)c4)N2C3=O)cn1 [Compound 20, (3R,11aR)-3-(3,4-dichlorophenyl)-2,3,11,11a-tetrahydro-8-(4-methyl-1H-imidazol-1-yl)-1H-pyrido[1,2-a]pyrrolo[1,2-d]pyrazine-5,9-dione]
> 10	0.24	–	Cc1cn(-c2ccc3n(c2=O)C[C@@H]2CCC[C@H](c4cc(C(F)(F)F)cc(C(F)(F)F)c4)N2C3=O)cn1 (single isomer, unassigned) [Compound 12, 10-[3,5-bis(trifluoromethyl)phenyl]-6,6a,7,8,9,10-hexahydro-3-(4-methyl-1H-imidazol-1-yl)-dipyrido[1,2-a: 1′,2′-d]pyrazine-4,12-dione ((6aR, 10S) or (6aS, 10R))]
> 10	1.12	231.07	Cc1cn(-c2ccc3n(c2=O)C[C@@H]2CCC[C@@H](Cc4cc(C(F)(F)F)cc(C(F)(F)F)c4)N2C3=O)cn1 (single isomer, unassigned) [Compound 7, 10-[[3,5-bis(trifluoromethyl)phenyl]methyl]-6,6a,7,8,9,10-hexahydro-3-(4-methyl-1H-imidazol-1-yl)-dipyrido[1,2-a:1′,2′-d]pyrazine-4,12-dione ((6aR, 10R) or (6aS, 10S))]
> 10	0.98	238.34	Cc1cn(-c2ccc3n(c2=O)C[C@@H]2CC[C@H](Cc4cc(C(F)(F)F)cc(C(F)(F)F)c4)N2C3=O)cn1 (single isomer, unassigned) [Compound 5, 3-[[3,5-bis(trifluoromethyl)phenyl]methyl]-2,3,11,11a-tetrahydro-8-(4-methyl-1H-imidazol-1-yl)-1H-pyrido[1,2-a]pyrrolo[1,2-d]pyrazine-5,9-dione ((3R, 11aS) or (3S, 11aR))]
> 10	0.19	–	Cc1cn(-c2ccc3n(c2=O)C[C@@H]2CC[C@@H](c4cc(C(F)(F)F)cc(C(F)(F)F)c4)N2C3=O)cn1 [Compound 16, (3S,11aS)-3-[3,5-bis(trifluoromethyl)phenyl]-2,3,11,11a-tetrahydro-8-(4-methyl-1H-imidazol-1-yl)-1H-pyrido[1,2-a]pyrrolo[1,2-d]pyrazine-5,9-dione]
> 10	> 10	255.25	Cc1cn(-c2ccc3n(c2=O)C[C@@H]2CC[C@@H](Cc4cc(C(F)(F)F)cc(C(F)(F)F)c4)N2C3=O)cn1 (single isomer, unassigned) [Compound 2, 3-[[3,5-bis(trifluoromethyl)phenyl]methyl]-2,3,11,11a-tetrahydro-8-(4-methyl-1H-imidazol-1-yl)-1H-pyrido[1,2-a]pyrrolo[1,2-d]pyrazine-5,9-dione ((3R, 11aR) or (3S, 11aS))]

Source: US10112943B2, “Substituted imidazoles as gamma secretase modulators” (Janssen Pharmaceutica NV, priority 2012, dated 2018)
